Test results from paper PMC2792609, “Effect of methomyl on hepatic mixed function oxidases in rats” (Indian Journal of Pharmacology, 2008).

How the values were obtained:
Hemoglobin = Hemoglobin content; type: in vivo, rat; conditions: for decrease in hemoglobin content: 3 days
Protocol: Group 1 received an equivalent amount of saline and served as control. Animals from group 2, 3, and 4 were given methomyl 1, 2, and 4 mg/kg body weight i.p. respectively, between 8: 00 a.m. and 9:00 a.m., for three consecutive days. […] Animals from group 2, 3, and 4 were injected with 4 mg/kg body weight methomyl for one, three, and five successive days. The volume injected into the rats of body weight 200 g was 1 ml. […]
Hemoglobin was measured using HLS-hemosafe reagent. The color obtained was measured colorimetrically at 530 nm.

Serum total protein [1] = type: in vivo, rat; conditions: female rats; for Serum total protein: for 3 days; for decrease in total protein content: 3 days
Alkaline phosphatase = experiment: Serum alkaline phosphatase activity; type: in vivo, rat; conditions: for increase in serum alkaline phosphatase activity: 3 days
Protocol: Adult male rats (weighing 200-230 g) were divided into four groups of six animals each. Group 1 received an equivalent amount of saline and served as control. Animals from group 2, 3, and 4 were given methomyl 1, 2, and 4 mg/kg body weight i.p. respectively, between 8: 00 a.m. and 9:00 a.m., for three consecutive days. In the second set of experiments, adult male rats were divided into four groups. Animals from group 2, 3, and 4 were injected with 4 mg/kg body weight methomyl for one, three, and five successive days. The volume injected into the rats of body weight 200 g was 1 ml. In another experiment, adult female rats and old male rats (weighing 350-450 g, 8 months old) were divided into two groups of six animals each. […]
Alanine aminotransferase and aspartate aminotransferase activity was measured using the Reitman and Frankel[12] method. Alkaline phosphatase activity was measured using Span diagnostic kits.[13] Cholinesterase activity was measured using the kinetic test method of Knedel et al.[14]

cytochrome b5 = experiment: Hepatic microsomal cytochrome b5 level; type: in vivo, rat
Protocol: (§1) Adult male rats (weighing 200-230 g) were divided into four groups of six animals each. Group 1 received an equivalent amount of saline and served as control. Animals from group 2, 3, and 4 were given methomyl 1, 2, and 4 mg/kg body weight i.p. respectively, between 8: 00 a.m. and 9:00 a.m., for three consecutive days. In the second set of experiments, adult male rats were divided into four groups. Animals from group 2, 3, and 4 were injected with 4 mg/kg body weight methomyl for one, three, and five successive days. The volume injected into the rats of body weight 200 g was 1 ml. In another experiment, adult female rats and old male rats (weighing 350-450 g, 8 months old) were divided into two groups of six animals each. Group 2 of each category received methomyl (4 mg/kg body weight, i.p., for three successive days), and group 1 of each category received an equivalent amount of saline and served as the control group.
(§2) The rats were sacrificed by cervical dislocation, 24 hours after the last dose. Their livers were perfused in situ with ice cold 1.15% KCl containing 0.05 mM EDTA, rapidly excised, blotted dry, weighed, minced and homogenized with two volumes of ice cold 0.25 M sucrose solution, in a Potter-Elvehjem type homogenizer. The homogenate was centrifuged at 10,000 × g for 10 min, in a refrigerated centrifuge (REMI C-24). The microsomes were isolated by the procedure described by of Cinti et al.[4] The microsomal pellet was suspended in phosphate buffer (0.1 M, pH 7.4) and the suspension was used for the microsomal enzyme assays. Microsomal protein content was measured by the Biuret method, using bovine serum albumin as the standard.[5]
(§3) The microsomal electron transport components (cytochrome P450 and cytochrome b5) were determined using Hitachi UV-Visible double beam recording spectrophotometer, by the procedure of Omura and Sato.[67] Cytochrome c reductase activity was determined using the method recommended by Masters et al.[8] Aminopyrine N-demethylase activity was assayed according to the procedure described by Schenkman et al.[9] Formaldehyde liberated during N-demethylation was estimated by the procedure described by Nash.[10] Aniline hydroxylase assay was performed using the procedure reported by Govindwar and Dalvi.[11]

old male rats = conditions: cited from earlier work
[2] = test system: Aminopyrine N-demethylase; experiment: Hepatic microsomal aminopyrine N-demethylase activity; type: in vivo, rat
Protocol: as §1, §2, §3

red cell ChE = conditions: methomyl aerosol, male rats, repeated inhalation; cited from earlier work
Serum total protein [3] = type: in vivo, rat; conditions: for decrease in total protein content: 3 days
Protocol: as §1

Male Wistar rats = conditions: 4 mg/kg; cited from earlier work
mixed function oxidases = conditions: quails; cited from earlier work
[4] = female rats, 1 mg/kg body weight i.p., for 3 days
[5] = female rats, 2 mg/kg body weight i.p., for 3 days
[6] = female rats, 4 mg/kg body weight i.p., for 3 days
[7] = male rats, 1 mg/kg body weight i.p., for three days
[8] = male rats, 2 mg/kg body weight i.p., for three days
[9] = male rats, 4 mg/kg body weight i.p., for three days
[10] = adult female rat, 4 mg/kg i.p., three days, vs control
[11] = adult female rats, 4 mg/kg body weight, i.p., three days
[12] = adult male rats, 1 mg/kg i.p., for 3 days
[13] = adult male rats, 2 mg/kg i.p., for 3 days
[14] = adult male rats, 4 mg/kg i.p., for 3 days
[15] = adult rats, 4 mg/kg i.p., 1 day of treatment
[16] = adult rats, 4 mg/kg i.p., 3 days of treatment
[17] = adult rats, 4 mg/kg i.p., 5 days of treatment
[18] = old male rat, 4 mg/kg i.p., three days, vs control
[19] = old male rats, 4 mg/kg body weight, i.p., three days

SMILES: CNC(=O)ON=C(C)SC [methomyl, S-methyl-N-(methyl carbomyl)-thioacetimidate]
- decrease in hemoglobin content (Hemoglobin; female rat, 1 mg/kg i.p.): 21%
- decrease in hemoglobin content (Hemoglobin; female rat, 2 mg/kg i.p.): 21%
- decrease in hemoglobin content (Hemoglobin; female rat, 4 mg/kg i.p.): 29%
- Hemoglobin (Hemoglobin; [4]): 10.06 g/dL
- Hemoglobin (Hemoglobin; [5]): 10.00 g/dL
- Hemoglobin (Hemoglobin; [6]): 9.06 g/dL
- decrease in hemoglobin content (Hemoglobin; male rat, 1 mg/kg i.p.): 16%
- decrease in hemoglobin content (Hemoglobin; male rat, 2 mg/kg i.p.): 25%
- decrease in hemoglobin content (Hemoglobin; male rat, 4 mg/kg i.p.): 29%
- Hemoglobin (Hemoglobin; [7]): 9.60 g/dL
- Hemoglobin (Hemoglobin; [8]): 8.60 g/dL
- Hemoglobin (Hemoglobin; [9]): 8.10 g/dL
- Serum total protein (Serum total protein [1]; 1 mg/kg body weight i.p.): 1.90 g/dL
- decrease in total protein content (Serum total protein [1]; 1 mg/kg i.p.): 14%
- Serum total protein (Serum total protein [1]; 2 mg/kg body weight i.p.): 1.96 g/dL
- decrease in total protein content (Serum total protein [1]; 2 mg/kg i.p.): 11%
- Alkaline phosphatase (Alkaline phosphatase; [4]): 19.0 KA units
- increase in serum alkaline phosphatase activity (Alkaline phosphatase; female rats, 1 mg/kg i.p.): 33%
- Alkaline phosphatase (Alkaline phosphatase; [5]): 23.0 KA units
- increase in serum alkaline phosphatase activity (Alkaline phosphatase; female rats, 2 mg/kg i.p.): 61%
- Alkaline phosphatase (Alkaline phosphatase; [6]): 26.7 KA units
- increase in serum alkaline phosphatase activity (Alkaline phosphatase; female rats, 4 mg/kg i.p.): 87%
- Alkaline phosphatase (Alkaline phosphatase; [7]): 23.4 KA units
- increase in serum alkaline phosphatase activity (Alkaline phosphatase; male rats, 1 mg/kg i.p.): 14%
- Alkaline phosphatase (Alkaline phosphatase; [8]): 26.4 KA units
- increase in serum alkaline phosphatase activity (Alkaline phosphatase; male rats, 2 mg/kg i.p.): 29%
- Alkaline phosphatase (Alkaline phosphatase; [9]): 28.6 KA units
- increase in serum alkaline phosphatase activity (Alkaline phosphatase; male rats, 4 mg/kg i.p.): 39%
- decrease in the level of cytochrome b5 (cytochrome b5; [10]): 21%
- Cytochrome b5 (cytochrome b5; [11]): 0.15 nmole/mg protein
- Cytochrome b5 (cytochrome b5; [12]): 0.16 nmole/mg protein
- Cytochrome b5 (cytochrome b5; [13]): 0.20 nmole/mg protein
- Cytochrome b5 (cytochrome b5; [14]): 0.19 nmole/mg protein
- change in cytochrome b5 (cytochrome b5; adult male rats, 4 mg/kg i.p., one, three and five days): No significant change
- change in cytochrome b5 (cytochrome b5; adult male rats, all the three doses (1, 2 and 4 mg/kg i.p., 3 days)): No significant change
- Cytochrome b5 (cytochrome b5; [15]): 0.25 nmole/mg protein
- Cytochrome b5 (cytochrome b5; [16]): 0.29 nmole/mg protein
- Cytochrome b5 (cytochrome b5; [17]): 0.28 nmole/mg protein
- decrease in cytochrome b5 (cytochrome b5; [18]): 51%
- Cytochrome b5 (cytochrome b5; [19]): 0.20 nmole/mg protein
- hemoglobin content, hematocrit value, erythrocyte, and leucocyte count (old male rats): Decreased
- decrease in the activity of aminopyrine N-demethylase [2, 10]: 26%
- Aminopyrine N-demethylase [2, 11]: 3.30 nmole of formaldehyde liberated/min/mg microsomal protein
- Aminopyrine N-demethylase [2, 12]: 3.2 nmole of formaldehyde liberated/min/mg microsomal protein
- decrease in the activity of aminopyrine N-demethylase ([2]; adult male rats, 2 mg/kg i.p., 3 days, vs control): 50%
- Aminopyrine N-demethylase [2, 13]: 1.9 nmole of formaldehyde liberated/min/mg microsomal protein
- decrease in the activity of aminopyrine N-demethylase ([2]; adult male rats, 4 mg/kg i.p., 3 days, vs control): 40%
- decrease in activity of aminopyrine N-demethylase ([2]; adult male rats, 4 mg/kg i.p., five days, vs control): 31%
- Aminopyrine N-demethylase [2, 14]: 2.3 nmole of formaldehyde liberated/min/mg microsomal protein
- decrease in activity of aminopyrine N-demethylase ([2]; adult male rats, 4 mg/kg i.p., one day, vs control): 31%
- decrease in activity of aminopyrine N-demethylase ([2]; adult male rats, 4 mg/kg i.p., three days, vs control): 51%
- Aminopyrine N-demethylase [2, 15]: 3.11 nmole of formaldehyde liberated/min/mg microsomal protein
- Aminopyrine N-demethylase [2, 16]: 2.20 nmole of formaldehyde liberated/min/mg microsomal protein
- Aminopyrine N-demethylase [2, 17]: 3.09 nmole of formaldehyde liberated/min/mg microsomal protein
- decrease in aminopyrine N-demethylase [2, 18]: 50%
- Aminopyrine N-demethylase [2, 19]: 2.26 nmole of formaldehyde liberated/min/mg microsomal protein
- effect on red cell ChE (red cell ChE): no cumulative effect
- Serum total protein (Serum total protein [3]; [6]): 1.70 g/dL
- decrease in total protein content (Serum total protein [3]; female rats, 4 mg/kg i.p.): 23%
- Serum total protein (Serum total protein [3]; [7]): 2.02 g/dL
- decrease in total protein content (Serum total protein [3]; male rats, 1 mg/kg i.p.): 13%
- Serum total protein (Serum total protein [3]; [8]): 1.80 g/dL
- decrease in total protein content (Serum total protein [3]; male rats, 2 mg/kg i.p.): 22%
- Serum total protein (Serum total protein [3]; [9]): 1.60 g/dL
- decrease in total protein content (Serum total protein [3]; male rats, 4 mg/kg i.p.): 30%
- duration of maximum severity (Male Wistar rats): about 30 min
- time to development of signs of toxicity (Male Wistar rats): ≤ 2 min
- time to maximum severity (muscle fasciculation and convulsions) (Male Wistar rats): 5 to 10 min
- time until free from obvious toxicity (Male Wistar rats): ≤ 90 min
- activity of mixed function oxidases (mixed function oxidases): inhibited
